Data on 1 compound can be found in US20240226310A1, “Lipid Nanoparticle Therapeutics that Evade the Immune Response” (The Trustees of the University of Pennsylvania, priority 2021, published 2024).

This data set concerns pro-inflammatory cytokines. Description: Pro-inflammatory cytokines in systemic mouse model of inflammation (IV-LPS). The class given is in vivo, mice.
The mark [1] stands for this setting: removal of macrophages, LPS-treated mice which received LNP-mRNAs.

Each structure is given as a SMILES string.

With `O=P(O)(O)C(Cl)(Cl)P(=O)(O)O` [Clodronate], where the note is “IV treatment, LPS model of systemic inflammation”, the systemic pro-inflammatory cytokines/markers entry was “reduces systemic pro-inflammatory markers”. Moreover, under setting [1], the IL-6 in blood result is recorded as “significantly lowered” and the “MIP-2 in liver homogenate” value is on record as “significantly lowered”.
